Consider 5 compounds from ChEMBL document CHEMBL3120076, “Structure-activity relationship of Baifuzi-cerebrosides on BKCa channel activation” (Eur J Med Chem, 2014).

Assay type in all cases: cell-based
Experiment [1] deals with CHO-K1. In words: Activation of wild type BK calcium channel (unknown origin) expressed in CHO-K1 cells assessed as increase in channel open probability by whole cell patch-clamp technique relative to control. The note with it: Homo sapiens. (Patch clamp records ionic current or voltage across a cell membrane.)
For experiment [2], the system named is CHO-K1. In words: Activation of wild type BK calcium channel STREX domain-deleted mutant (unknown origin) expressed in CHO-K1 cells assessed as increase in channel open probability at 10 uM at +20 mV holding potential by whole cell patch-clamp technique (reference value: 0.7 +/- 0.1%). The note with it: Homo sapiens.
Experiment [3] has as its system CHO-K1. In words: Extracellular activation of wild type BK calcium channel (unknown origin) expressed in CHO-K1 cells assessed as increase in whole cell currents at 10 uM by whole cell patch-clamp technique. The following applies: Homo sapiens.
The test system of experiment [4] is CHO-K1. In words: Activation of wild type BK calcium channel (unknown origin) expressed in CHO-K1 cells assessed as increase in channel open probability at 10 uM at +20 mV holding potential by whole cell patch-clamp technique (reference value: 0.58 +/- 0.03%). The following applies: Homo sapiens.
The test system of experiment [5] is CHO-K1. In words: Activation of wild type BK calcium channel (unknown origin) expressed in CHO-K1 cells assessed as increase in channel open probability at 5 uM at +20 mV holding potential by whole cell patch-clamp technique (reference value: 0.58 +/- 0.03%). The following applies: Homo sapiens.
The subject of experiment [6] is CHO-K1. In words: Activation of wild type BK calcium channel (unknown origin) expressed in CHO-K1 cells assessed as increase in channel open probability at 1 uM at +20 mV holding potential by whole cell patch-clamp technique (reference value: 0.58 +/- 0.03%). The note with it: Homo sapiens.
Experiment [7] relates to CHO-K1. In words: Activation of wild type BK calcium channel (unknown origin) expressed in CHO-K1 cells assessed as increase in channel open probability at 0.1 uM at +20 mV holding potential by whole cell patch-clamp technique (reference value: 0.58 +/- 0.03%). The following applies: Homo sapiens.
Experiment [8] is described as follows: (§1) Activation of wild type BK calcium channel (unknown origin) expressed in CHO-K1 cells assessed as increase in channel open probability at +20 mV holding potential by whole cell patch-clamp technique.
In experiment [9] the test system is CHO-K1. The experiment is described as §1. The note with it: Homo sapiens.

The source made the active and inactive calls. The rule behind the calls is not given here.

Consider `CCCCCCCCC/C=C\CC/C=C/[C@@H](O)[C@H](CO[C@@H]1O[C@H](CO)[C@@H](O)[C@H](O)[C@H]1O)NC(=O)[C@H](O)CCCCCCCCCCCCCCCCCC`, for which, in the experiment on CHO-K1 [1], the fold change (FC) is 1.89.
`CCCCCCCCC/C=C/CC/C=C/[C@@H](O)[C@H](CO[C@@H]1O[C@H](CO)[C@@H](O)[C@H](O)[C@H]1O)NC(=O)[C@H](O)CCCCCCCCCCCCCCCC`: the fold change (FC) with CHO-K1 [1] worked out at 2.03.
As for `CCCCCCCCC/C=C\CC/C=C/[C@@H](O)[C@H](CO[C@@H]1O[C@H](CO)[C@@H](O)[C@H](O)[C@H]1O)NC(=O)[C@H](O)CCCCCCCCCCCCCCCCCCCC`, the fold change (FC) in the experiment with CHO-K1 [1] was 5.34. In addition, the Activity in the experiment on CHO-K1 [2] is 0.9%; in the experiment on CHO-K1 [4], 4.2%; in the experiment on CHO-K1 [5] it was 3.3%; in the experiment with CHO-K1 [6], 2.4%; with CHO-K1 [7], 0.65%; in the experiment on CHO-K1 [9], “Dose-dependent effect”. For the same compound, the outcome in the experiment on CHO-K1 [3] was Active. Besides, in experiment [8], the EC50 (as a rule, the midpoint of the concentration-response curve) was 1000 nM.
Regarding `CCCCCCCCC/C=C/CC/C=C/[C@@H](O)[C@H](CO[C@@H]1O[C@H](CO)[C@@H](O)[C@H](O)[C@H]1O)NC(=O)[C@H](O)CCCCCCCCCCCCCCCCCC`, the fold change (FC) in the experiment with CHO-K1 [1] was determined as 3.12.
In the case of `CCCCCCCCC/C=C\CC/C=C/[C@@H](O)[C@H](CO[C@@H]1O[C@H](CO)[C@@H](O)[C@H](O)[C@H]1O)NC(=O)[C@H](O)CCCCCCCCCCCCCCCC`, in the experiment with CHO-K1 [1], the fold change (FC) came to 1.15.
